We go through three compounds from article PMC6339567 (Analytical chemistry, 2018).

Broadly, the Papp is the rate of passage across a membrane or cell layer, normalised by area and donor concentration. High values mean fast passage, low ones slow passage. The efflux ratio is the permeability from basolateral to apical divided by that in the opposite direction, in the common usage.

In data set [1] the test system is confluent monolayers of primary murine colonic epithelial cells. To be noted: Figure 4A.
A further data set is described as follows: in vitro. Conditions: mouse.
For another data set, the target named is P-gp (Mus musculus, UniProt P21447). Kind of data set: in vitro.
Data set [2] concerns confluent monolayers of primary murine colonic epithelial cells. Type of data set: in vitro ADME, mouse. To be noted: upper bound for all monolayers with TEER >300 Ω cm^2 (n=6).

Bounds are passed on as bounds.

P-gp, sequence (P21447 whole entry): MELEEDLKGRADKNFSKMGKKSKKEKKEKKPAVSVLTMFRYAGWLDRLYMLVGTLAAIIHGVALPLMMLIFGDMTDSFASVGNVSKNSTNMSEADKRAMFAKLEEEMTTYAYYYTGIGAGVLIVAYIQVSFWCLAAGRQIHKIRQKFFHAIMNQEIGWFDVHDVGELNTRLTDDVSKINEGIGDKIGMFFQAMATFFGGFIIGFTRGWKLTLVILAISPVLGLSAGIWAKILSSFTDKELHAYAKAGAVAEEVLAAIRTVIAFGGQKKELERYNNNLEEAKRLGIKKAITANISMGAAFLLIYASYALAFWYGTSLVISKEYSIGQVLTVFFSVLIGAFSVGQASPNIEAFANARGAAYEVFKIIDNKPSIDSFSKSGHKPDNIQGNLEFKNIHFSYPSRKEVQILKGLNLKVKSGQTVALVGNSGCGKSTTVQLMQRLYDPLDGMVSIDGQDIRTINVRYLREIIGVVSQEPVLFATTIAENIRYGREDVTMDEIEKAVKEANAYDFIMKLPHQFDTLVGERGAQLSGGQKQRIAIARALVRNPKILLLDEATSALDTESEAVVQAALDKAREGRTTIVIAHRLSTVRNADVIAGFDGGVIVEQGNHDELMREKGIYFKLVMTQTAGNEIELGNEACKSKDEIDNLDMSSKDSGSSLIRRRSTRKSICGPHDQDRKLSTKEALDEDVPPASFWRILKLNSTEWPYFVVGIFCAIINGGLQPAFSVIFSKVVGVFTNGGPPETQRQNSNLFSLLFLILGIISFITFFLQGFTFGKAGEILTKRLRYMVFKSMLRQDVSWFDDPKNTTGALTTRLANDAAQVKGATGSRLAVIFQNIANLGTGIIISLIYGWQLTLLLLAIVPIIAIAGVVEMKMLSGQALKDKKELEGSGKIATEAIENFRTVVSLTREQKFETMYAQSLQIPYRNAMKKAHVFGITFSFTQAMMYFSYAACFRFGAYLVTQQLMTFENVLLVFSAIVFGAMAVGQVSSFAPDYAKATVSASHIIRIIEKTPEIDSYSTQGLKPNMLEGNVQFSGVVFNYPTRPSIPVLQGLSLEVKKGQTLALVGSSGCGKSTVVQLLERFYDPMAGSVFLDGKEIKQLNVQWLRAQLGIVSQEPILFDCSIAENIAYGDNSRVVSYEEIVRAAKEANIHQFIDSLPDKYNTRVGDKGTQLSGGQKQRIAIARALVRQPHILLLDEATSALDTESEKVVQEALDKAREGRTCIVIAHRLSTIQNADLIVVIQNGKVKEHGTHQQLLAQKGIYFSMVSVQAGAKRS

Turning to `CC(C)NCC(O)COc1cccc2ccccc12` (stereo not shown) [propranolol], the “permeability across day-5 monolayers (in words)” value in data set [1] is recorded as “high Papp”. The same compound had a Papp at 3 h, 10 µM in the data set “in vitro” of 9.69 ×10⁻⁶ cm/s.

In the case of `COC(=O)c1ccccc1-c1c2ccc(=N)cc-2oc2cc(N)ccc12` [Rh123, rhodamine 123], the efflux ratio at 2 h, 10 µM on P-gp is 7.

Take lucifer yellow [LY]: in data set [2], the “Papp for LY, all monolayers with TEER >300 Ω cm^2” value was under 4.5e-07 cm/s.
